Laboratory results from ChEMBL document CHEMBL4364294 (J Med Chem, 2019).

Assay: Intrinsic clearance in human liver microsomes
Format: ADME, Microsome
Details: read-out: CLH

Q: With `O[C@@H](C[C@H]1c2c(F)cccc2-c2cncn21)[C@H]1CC[C@H](O)CC1` as the compound, how does the predicted hepatic clearance read?
A: 6.2 mL/min/kg
